Assay results taken from publication doi:10.1101/2023.10.20.563248v1 (biorxiv, 2023).

What was measured:
Settings in all cases: 1 µM; inhibitor
AurB = AurB (Homo sapiens, UniProt Q96GD4)
ZAK = ZAK (Homo sapiens, UniProt Q9NYL2)
PKCbeta2 = PKCbeta2 (Homo sapiens, UniProt P05771)
MARK1 = MARK1 (Homo sapiens, UniProt Q9P0L2)
BRK = BRK (Homo sapiens, UniProt Q13882)
LCK = LCK (Homo sapiens, UniProt P06239)
PYK2 = PYK2 (Homo sapiens, UniProt Q14289)
CDK8 = CDK8 (Homo sapiens, UniProt P49336)
CK2a2 = CK2a2 (Homo sapiens, UniProt P19784)
JNK3 = JNK3 (Homo sapiens, UniProt P53779)
ERK5 = ERK5 (Homo sapiens, UniProt Q13164)
GRK6 = GRK6 (Homo sapiens, UniProt P43250)
PAK3 = PAK3 (Homo sapiens, UniProt O75914)
PKCg = PKCg (Homo sapiens, UniProt P05129)
CDK4/CycD2 = CDK4/CycD2 (Homo sapiens, UniProt P11802)
TEC = TEC (Homo sapiens, UniProt P42680)
MST4 = MST4 (Homo sapiens, UniProt Q9P289)
RPS6KA2 = RPS6KA2 (Homo sapiens, UniProt Q15349)
VRK1 = VRK1 (Homo sapiens, UniProt Q99986)
ARK5 = ARK5 (Homo sapiens, UniProt O60285)
PRK1 = PRK1 (Homo sapiens, UniProt Q16512)
SAK = SAK (Homo sapiens, UniProt O00444)
BLK = BLK (Homo sapiens, UniProt P51451)
CAMKK1 = CAMKK1 (Homo sapiens, UniProt Q8N5S9)
FER = FER (Homo sapiens, UniProt P16591)
GRK5 = GRK5 (Homo sapiens, UniProt P34947)
MKK7 = MKK7 (Homo sapiens, UniProt O14733)
GRK2 = GRK2 (Homo sapiens, UniProt P25098)
ERK2 = ERK2 (Homo sapiens, UniProt P28482)
ASK1 = ASK1 (Homo sapiens, UniProt Q99683)
FLT4 = FLT4 (Homo sapiens, UniProt P35916)

Sequence of GRK5 (P34947 whole entry): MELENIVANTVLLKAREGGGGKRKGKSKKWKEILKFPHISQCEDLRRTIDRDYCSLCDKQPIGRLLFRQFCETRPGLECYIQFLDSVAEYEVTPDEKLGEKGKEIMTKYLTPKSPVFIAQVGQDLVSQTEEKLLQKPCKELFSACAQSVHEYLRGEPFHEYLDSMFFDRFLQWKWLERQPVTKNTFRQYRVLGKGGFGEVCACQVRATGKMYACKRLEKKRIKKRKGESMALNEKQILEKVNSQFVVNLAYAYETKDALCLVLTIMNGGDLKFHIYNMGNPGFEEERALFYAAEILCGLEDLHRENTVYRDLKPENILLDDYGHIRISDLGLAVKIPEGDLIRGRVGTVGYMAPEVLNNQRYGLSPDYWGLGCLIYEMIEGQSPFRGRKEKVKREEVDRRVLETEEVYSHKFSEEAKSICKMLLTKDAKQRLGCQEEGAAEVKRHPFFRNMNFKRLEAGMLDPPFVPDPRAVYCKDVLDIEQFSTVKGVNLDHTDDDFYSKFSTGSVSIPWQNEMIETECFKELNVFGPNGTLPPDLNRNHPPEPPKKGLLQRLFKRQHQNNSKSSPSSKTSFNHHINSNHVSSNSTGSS
Sequence of CAMKK1 (Q8N5S9 whole entry): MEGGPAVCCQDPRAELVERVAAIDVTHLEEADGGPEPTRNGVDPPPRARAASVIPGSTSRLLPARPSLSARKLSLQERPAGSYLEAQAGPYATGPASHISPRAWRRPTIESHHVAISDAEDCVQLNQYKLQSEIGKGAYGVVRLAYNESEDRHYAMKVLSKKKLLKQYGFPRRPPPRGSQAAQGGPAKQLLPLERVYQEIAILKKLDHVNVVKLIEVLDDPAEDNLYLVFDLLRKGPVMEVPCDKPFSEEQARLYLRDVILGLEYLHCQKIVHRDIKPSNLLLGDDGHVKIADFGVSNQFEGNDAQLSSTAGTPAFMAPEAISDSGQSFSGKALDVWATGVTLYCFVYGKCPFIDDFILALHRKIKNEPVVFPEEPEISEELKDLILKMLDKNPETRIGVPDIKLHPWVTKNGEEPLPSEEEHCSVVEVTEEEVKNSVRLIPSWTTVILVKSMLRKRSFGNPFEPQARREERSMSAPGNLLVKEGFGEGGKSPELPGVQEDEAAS
Sequence of CDK8 (P49336 whole entry): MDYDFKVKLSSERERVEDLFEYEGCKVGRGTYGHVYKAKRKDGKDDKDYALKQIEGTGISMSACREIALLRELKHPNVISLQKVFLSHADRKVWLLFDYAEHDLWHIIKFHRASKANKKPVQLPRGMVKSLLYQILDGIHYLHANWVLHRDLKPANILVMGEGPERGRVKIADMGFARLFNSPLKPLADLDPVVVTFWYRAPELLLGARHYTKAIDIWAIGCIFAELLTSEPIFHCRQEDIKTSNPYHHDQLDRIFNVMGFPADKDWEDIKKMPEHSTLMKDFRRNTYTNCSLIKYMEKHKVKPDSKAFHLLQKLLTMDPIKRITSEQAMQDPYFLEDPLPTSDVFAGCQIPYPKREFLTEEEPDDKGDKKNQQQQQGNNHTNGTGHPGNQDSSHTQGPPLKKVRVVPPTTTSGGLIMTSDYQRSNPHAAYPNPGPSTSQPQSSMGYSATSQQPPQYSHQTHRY
Sequence of MKK7 (O14733 whole entry): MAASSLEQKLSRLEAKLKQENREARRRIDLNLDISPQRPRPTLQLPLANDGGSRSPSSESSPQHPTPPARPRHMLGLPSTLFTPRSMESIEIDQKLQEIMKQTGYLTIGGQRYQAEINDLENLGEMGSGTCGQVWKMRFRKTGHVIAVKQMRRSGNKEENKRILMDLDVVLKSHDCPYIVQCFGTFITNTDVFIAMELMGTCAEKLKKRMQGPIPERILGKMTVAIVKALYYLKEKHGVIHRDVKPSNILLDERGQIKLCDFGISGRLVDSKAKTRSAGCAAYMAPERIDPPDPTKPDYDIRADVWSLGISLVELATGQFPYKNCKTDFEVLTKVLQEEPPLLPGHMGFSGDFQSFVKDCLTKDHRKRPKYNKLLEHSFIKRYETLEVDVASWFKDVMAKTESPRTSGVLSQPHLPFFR
Sequence of CDK4/CycD2 (P11802 whole entry): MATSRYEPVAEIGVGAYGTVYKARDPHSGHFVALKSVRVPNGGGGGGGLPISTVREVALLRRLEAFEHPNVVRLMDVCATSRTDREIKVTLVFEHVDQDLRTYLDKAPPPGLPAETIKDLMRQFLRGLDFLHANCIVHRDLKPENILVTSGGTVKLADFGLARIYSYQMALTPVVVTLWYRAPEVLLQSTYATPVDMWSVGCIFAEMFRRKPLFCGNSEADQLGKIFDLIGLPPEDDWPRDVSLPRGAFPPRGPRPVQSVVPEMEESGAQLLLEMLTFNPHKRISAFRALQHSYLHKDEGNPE
Sequence of CDK4/CycD2 (P30279 whole entry partner): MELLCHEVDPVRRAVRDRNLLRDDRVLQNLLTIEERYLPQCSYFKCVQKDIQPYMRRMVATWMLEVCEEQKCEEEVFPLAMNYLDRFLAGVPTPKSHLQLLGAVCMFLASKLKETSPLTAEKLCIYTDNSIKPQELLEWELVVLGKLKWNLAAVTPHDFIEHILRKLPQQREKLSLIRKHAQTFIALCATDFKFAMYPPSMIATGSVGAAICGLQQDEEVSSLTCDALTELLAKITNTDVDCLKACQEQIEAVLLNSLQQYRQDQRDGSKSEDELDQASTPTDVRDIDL
Sequence of AurB (Q96GD4 whole entry): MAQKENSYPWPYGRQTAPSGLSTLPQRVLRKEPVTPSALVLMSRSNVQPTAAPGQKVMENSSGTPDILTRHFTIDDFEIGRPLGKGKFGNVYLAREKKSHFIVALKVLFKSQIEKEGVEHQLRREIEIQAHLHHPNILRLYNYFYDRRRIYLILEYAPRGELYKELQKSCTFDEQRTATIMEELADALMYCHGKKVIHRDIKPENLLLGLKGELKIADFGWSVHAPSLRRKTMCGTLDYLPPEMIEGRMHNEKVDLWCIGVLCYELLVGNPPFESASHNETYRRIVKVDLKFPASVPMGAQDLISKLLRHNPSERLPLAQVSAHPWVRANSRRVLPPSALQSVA
Sequence of ZAK (Q9NYL2 whole entry): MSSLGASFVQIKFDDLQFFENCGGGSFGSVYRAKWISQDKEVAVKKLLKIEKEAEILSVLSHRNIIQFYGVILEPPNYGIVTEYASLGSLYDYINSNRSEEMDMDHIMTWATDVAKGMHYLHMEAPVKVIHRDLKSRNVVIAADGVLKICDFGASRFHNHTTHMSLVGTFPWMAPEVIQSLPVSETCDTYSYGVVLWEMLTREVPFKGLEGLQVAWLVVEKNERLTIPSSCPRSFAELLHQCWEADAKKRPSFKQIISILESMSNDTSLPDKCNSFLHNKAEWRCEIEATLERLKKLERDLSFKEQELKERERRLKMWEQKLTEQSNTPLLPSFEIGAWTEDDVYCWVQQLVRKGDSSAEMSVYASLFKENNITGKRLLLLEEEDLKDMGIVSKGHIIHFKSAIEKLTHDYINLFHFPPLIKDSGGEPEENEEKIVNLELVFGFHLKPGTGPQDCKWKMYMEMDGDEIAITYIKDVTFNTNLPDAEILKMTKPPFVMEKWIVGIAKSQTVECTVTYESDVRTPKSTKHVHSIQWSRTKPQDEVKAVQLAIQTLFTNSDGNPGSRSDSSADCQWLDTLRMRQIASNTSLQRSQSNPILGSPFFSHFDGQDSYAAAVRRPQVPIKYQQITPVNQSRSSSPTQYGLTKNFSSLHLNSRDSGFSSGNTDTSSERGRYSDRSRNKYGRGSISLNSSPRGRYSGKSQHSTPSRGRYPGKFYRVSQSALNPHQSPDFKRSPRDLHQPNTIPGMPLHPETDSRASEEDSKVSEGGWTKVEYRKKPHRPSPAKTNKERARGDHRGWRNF
Sequence of TEC (P42680 whole entry): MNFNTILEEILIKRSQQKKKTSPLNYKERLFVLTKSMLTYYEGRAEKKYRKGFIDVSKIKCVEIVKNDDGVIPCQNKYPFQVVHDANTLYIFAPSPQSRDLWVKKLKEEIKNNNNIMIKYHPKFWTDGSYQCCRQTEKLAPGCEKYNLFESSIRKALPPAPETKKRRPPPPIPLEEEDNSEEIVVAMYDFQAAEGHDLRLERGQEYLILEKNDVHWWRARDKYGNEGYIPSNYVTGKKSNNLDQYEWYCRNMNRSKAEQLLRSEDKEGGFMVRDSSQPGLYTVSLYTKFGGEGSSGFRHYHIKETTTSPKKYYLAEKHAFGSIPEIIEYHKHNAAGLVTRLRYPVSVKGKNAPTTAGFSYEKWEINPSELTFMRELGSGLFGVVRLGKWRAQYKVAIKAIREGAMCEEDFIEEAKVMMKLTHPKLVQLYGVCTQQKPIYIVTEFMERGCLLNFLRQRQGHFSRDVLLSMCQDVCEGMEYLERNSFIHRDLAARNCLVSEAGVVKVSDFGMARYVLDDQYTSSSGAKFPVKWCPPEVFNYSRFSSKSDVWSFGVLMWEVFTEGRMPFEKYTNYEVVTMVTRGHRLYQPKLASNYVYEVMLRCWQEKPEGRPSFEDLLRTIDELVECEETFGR
Sequence of ERK2 (P28482 whole entry): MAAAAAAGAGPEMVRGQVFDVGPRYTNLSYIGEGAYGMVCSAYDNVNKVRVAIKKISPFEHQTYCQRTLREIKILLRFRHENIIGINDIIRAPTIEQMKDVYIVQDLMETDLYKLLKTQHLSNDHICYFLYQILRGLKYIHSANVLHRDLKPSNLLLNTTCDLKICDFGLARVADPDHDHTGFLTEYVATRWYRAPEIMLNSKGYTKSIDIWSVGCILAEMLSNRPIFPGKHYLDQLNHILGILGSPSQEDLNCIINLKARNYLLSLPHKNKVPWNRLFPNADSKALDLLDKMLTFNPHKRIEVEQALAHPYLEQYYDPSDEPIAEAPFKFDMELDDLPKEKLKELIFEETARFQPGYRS

21c Remaining activity, percent of control [%] (AurB): 83.9% | 21c Remaining activity, percent of control [%] (ZAK): 82.9% | 21c Remaining activity, percent of control [%] (PKCbeta2): 100.8% | 21c Remaining activity, percent of control [%] (MARK1): 96.0% | 21c Remaining activity, percent of control [%] (BRK): 99.3% | 21c Remaining activity, percent of control [%] (LCK): 92.0% | 21c Remaining activity, percent of control [%] (PYK2): 80.8% | 21c Remaining activity, percent of control [%] (CDK8): 88.5% | 21c Remaining activity, percent of control [%] (CK2a2): 85.6% | 21c Remaining activity, percent of control [%] (JNK3): 84.9% | 21c Remaining activity, percent of control [%] (ERK5): 93.4% | 21c Remaining activity, percent of control [%] (GRK6): 87.6% | 21c Remaining activity, percent of control [%] (PAK3): 103.3% | 21c Remaining activity, percent of control [%] (PKCg): 79.4% | 21c Remaining activity, percent of control [%] (CDK4/CycD2): 106.8% | 21c Remaining activity, percent of control [%] (TEC): 91.4% | 21c Remaining activity, percent of control [%] (MST4): 18.0% | 21c Remaining activity, percent of control [%] (RPS6KA2): 84.0% | 21c Remaining activity, percent of control [%] (VRK1): 91.5% | 21c Remaining activity, percent of control [%] (ARK5): 86.3% | 21c Remaining activity, percent of control [%] (PRK1): 91.8% | 21c Remaining activity, percent of control [%] (SAK): 86.5% | 21c Remaining activity, percent of control [%] (BLK): 98.6% | 21c Remaining activity, percent of control [%] (CAMKK1): 94.6% | 21c Remaining activity, percent of control [%] (FER): 101.7% | 21c Remaining activity, percent of control [%] (GRK5): 103.8% | 21c Remaining activity, percent of control [%] (MKK7): 100.3% | 21c Remaining activity, percent of control [%] (GRK2): 96.7% | 21c Remaining activity, percent of control [%] (ERK2): 90.7% | 21c Remaining activity, percent of control [%] (ASK1): 97.7% | 21c Remaining activity, percent of control [%] (FLT4): 93.9%
Structure (SMILES): O=C1NCCCCCNc2nc(c3ccccc3n2)Nc2cc1[nH]n2 [21c, (Z)-3^1H-2,5,11-triaza-1(4,2)-quinazolina-3(3,5)-pyrazolacycloundecaphan-4-one]
